The subject of assay [1] is subgenomic HCV replicon of genotype 1b (Con1S1179I), NS5A region. As to the kind of experiment: NS5A sequencing of HCV RNA, nucleotide and amino acid substitution rates in Con1 replicon cells (Example 2). The format is cell-based, Hepatitis C virus. Particulars: for Nt. change per site: Con1 replicon cells, once daily for 48 hrs, T7 baseline subtracted, ethanol 0.5% v/v, BSO 20 μM, H2O2 100 μM, acetaldehyde 10 μM; for Fold increase (Amino acid change per site): over control, 48 hrs; for amino acid substitution rate in the BSO group with co-treatment: 20 μM BSO daily for 48 hr; for amino acid substitution rate in the BSO group with co-treatment / amino acid substitution rate in the ethanol group with co-treatment / nt. substitution rates of ethanol and BSO groups with co-treatment / dn/ds ratio in the BSO group with co-treatment: 10 μM dipyridyl or 2 mM GSH ester; for amino acid substitution rate in the ethanol group with co-treatment: 0.5% ethanol daily for 48 hr; for nt. substitution rates of ethanol and BSO groups with co-treatment: 0.5% ethanol or 20 μM BSO daily for 48 hr; for percentage of sites undergoing positive selection with co-treatment: FIG. 8A; for dn/ds ratio of the control group with co-treatment: from 0.31 without inhibitor; for dn/ds ratio in the BSO group with co-treatment: from 0.72 without inhibitor, 48 hr. How it is done:
Huh7 cell clones (SgPC2 cells) supporting continuous replication of a subgenomic HCV replicon of genotype 1b (Con1S1179I sequence) were used (Choi J. et al. (2004) Hepatology 39:81-89; Blight K J et al. (2000) Science 290:1972). Subgenomic replicons support the HCV RNA genome replication by the viral replicase but no virus is formed. The in vitro transcription, transfection of the viral RNA, and Huh7 human hepatoma cell culture were performed as described (Choi J. et al. (2004) Hepatology 39:81-89; Blight K J et al. (2000) Science 290:1972). All biochemicals including ethanol (molecular biology grade), acetaldehyde, BSO, H2O2, dipyridal, and GSH ethyl ester were obtained from SigmaAldrich except PIH, which was synthesized according to published methods (Kicic A et al., (2001) Cancer 92: 3093-3110; Ponka P. et al., (1979) FEBS Lett 97: 317-321).
Total RNAs were collected using Trizol (Invitrogen). Then, the NS5A region (nt. 4612 to 6013 of Con1 replicon) was reverse transcribed/amplified with AccuScript High Fidelity RT-PCR System (Agilent). The reverse primer used for reverse transcription and PCR amplification was 5′-[…]-3′ (SEQ ID NO: 1), and the forward primer was 5′-[…]-3′ (SEQ ID NO: 2). The XbaI and HindIII restriction enzyme sites are underlined. The cDNA products were cloned into pUC19 via HindIII and XbaI sites and sequenced at the Joint Genome Institute (Livermore, Calif.) and University of California Berkeley Sequencing (Berkeley, Calif.). Sequences were aligned against Con1(S1179I) sequence, using BioEdit/MEGA 4.0 Molecular Evolutionary Genetics Analysis software. Cumulative synonymous and nonsynonymous mutations were computed using Synonymous Nonsynonomous Analysis Program (SNAP; www.hcv.lanl.gov). The […] ratio was calculated using SNAP. Amino acid substitution trends were analyzed by position with MutationCounter, a mutation counting program, developed for this project. The sequences were compared with 1,212 genotype 1b NS5A sequences pooled from the Lawrence Livermore HCV sequence database (www.hcv.lanl.gov) which included sequences from the European, Asian, and Russian databases. Sequences harboring gaps, undetermined nucleotides, or incomplete NS5A sequences were removed prior to the analysis.
To test whether ethanol can affect the HCV RNA sequence, Con1 replicon cells that support genotype 1b subgenomic HCV RNA replication were incubated with ethanol (0.5% v/v), BSO (20 μM), H2O2 (100 μM), or acetaldehyde (10 μM) once daily for 48 hrs with a change of the cell culture medium at the time of each treatment. Acetaldehyde and H2O2 are generated during hepatic metabolism of ethanol. BSO, by inhibiting GSH biosynthesis, mimics GSH depletion seen in hepatitis C patients. GSH participates in detoxification reactions that remove reactive species such as H2O2 and acetaldehyde. Thus, by decreasing GSH, BSO also amplifies the effects of endogenous ROS and RNS, allowing one to test the effects of endogenous ROS/RNS. Then, the RNA was collected, and the NS5A region corresponding to nt. 4612 to 6013 of Con1 replicon was reverse transcribed using AccuScript reverse transcriptase and amplified with PfuUltra (Agilent). PfuUltra is a high fidelity DNA polymerase with an error rate of 4.3×10^−9; AccuScript reverse transcriptase has an error rate of 1.61×10^−7. Then, the cDNA products were cloned into pUC19 and sequenced by the Sanger method.
For orientation: In antiviral work, replicon cells carry a viral genome segment that copies itself.

Assay [2] deals with subgenomic HCV replicon of genotype 1b (Con1), NS5A region. The assay can be described thus: NS5A sequencing of HCV RNA, mutation frequency in SgPC2 Con1 replicon cells (Example 1). Type of assay: cell-based, Hepatitis C virus. The settings on record: H2O2 100 μM, acetaldehyde 10 μM, once daily for 48 hrs. How it is done:
Huh7 cell clones (SgPC2 cells) supporting continuous replication of a subgenomic HCV replicon of genotype 1b (Con1 sequence) were used (Choi J. et al. (2004) Hepatology 39:81-89; Blight K J et al. (2000) Science 290:1972). The subgenomic replicons support HCV RNA replication but no virus is formed. The in vitro transcription, transfection of HCV RNA, and Huh7 human hepatoma cell culture were performed by methods known in the art and as previously described (Choi J. et al. (2004) Hepatology 39:81-89; Blight K J et al. (2000) Science 290:1972).
After various treatments, total RNAs were collected using Trizol (Invitrogen). Then, the NS5A region (nt. 4612 to 6013 of Con1 replicon) was reverse transcribed/amplified with AccuScript High Fidelity RT-PCR System (Stratagene). The cDNAs were cloned into pUC19 and sequenced at the Joint Genome Institute (Livermore, Calif.). Sequences were aligned against Con1(S11791) sequence, using BioEdit/MEGA 4.0 Molecular Evolutionary Genetics Analysis software.
To test whether ethanol can increase the mutation rate of HCV, SgPC2 Con1 replicon cells that support genotype 1b subgenomic HCV RNA replication (FIG. 2B) were incubated with ethanol (0.5%), BSO (amplifies the effects of endogenous ROS/RNS by decreasing the level of glutathione in the cell), H2O2 (100 μM), or acetaldehyde (10 μM) once daily for 48 hrs. Then, the RNAs were collected, and the NS5A region (nt. 4612 to 6013 of Con1 replicon) was reverse transcribed/amplified with AccuScript High Fidelity RT-PCR System (Stratagene). Then, the cDNAs were cloned into pUC19 and sequenced at the Joint Genome Institute (Livermore, Calif.). T7 HCV RNA transcript, initially used to transfect the Con1 cells, was also sequenced to assess the basal level of RNA heterogeneity, such as due to any heterogeneity of the DNA template prior to in vitro transcription as well as any errors generated during transcription and RT-PCR cloning. The experiments were focused on NS5A because of its moderate level of diversity and its role in viral replication as well as interferon resistance. Sequences were aligned against Con1(S1179I) sequence, using BioEdit/MEGA 4.0 Molecular Evolutionary Genetics Analysis software.

The subject of assay [3] is Con1 replicon cells. As to the kind of experiment: 8-OHG oxidative RNA damage in SgPC2 Con1 replicon cells (ELISA). Type of assay: cell-based, human. The settings on record: for level of 8-OHG in ethanol and BSO-treated replicon cells with inhibitor: 0.5% ethanol or 20 μM BSO daily for 48 hr, 10 μM dipyridyl, 2 mM GSH ester, 5 μM PIH, 0.1 mM DETAPAC, 1 mM L-NMA, DPI, 25 μM DADS. How it is done:
Total RNA was isolated using Trizol (Invitrogen) and analyzed for 8-OH-guanosine (8-OH-G) by northwestern, as described (Shan X et al. (2003) J. Neurosci. 23:4913-4921). Briefly, RNA was size-fractionated by agarose gel electrophoresis, transferred to a nylon membrane, blocked with 1% BSA, incubated sequentially with monoclonal anti-8-OH-G/dG antibodies (QED Bioscience, Inc.) and then with goat anti-mouse HRP-conjugated secondary antibody (Santa Cruz Biotechnology), and signals were detected, using an ECL kit (Amersham). In addition, RNA was digested with nuclease P1 (Sigma, US Biological) and alkaline phosphatase (Promega) and analyzed for 8-OH-G content using RNA Damage Kit (Cell Biolabs, Inc.), following manufacturer's protocols.
Total RNA was isolated using Trizol (Invitrogen) and analyzed for 8-OHG by ELISA. Briefly, RNA was incubated with 10 U DNase I (GE Healthcare), 10 U nuclease P1 (Sigma or US Biological), and 10 U alkaline phosphatase (Promega) and analyzed for 8-OHG content with RNA Damage Kit (Cell Biolabs, Inc.) and 8-OHG standards, following manufacturer's protocols.

The record followed here is US20110206638A1, “COMPOSITIONS AND METHODS FOR REDUCING THE MUTATION RATE OF VIRUSES” (priority 2010, published 2011).

SMILES strings stand for the structures. “Also recorded” adds a separate entry of the source.

Consider `CC=O` [acetaldehyde], for which, in assay [1], the “Nt. change per site” value is 4.25×10^−4 nt. change per site and the “Fold increase (Amino acid change per site)” value is on record as “did not increase”. Further, the “increase in mutation frequency vs control” value in assay [2] is given as “not statistically significant”. Besides, the “8-OH-G in Con1 replicon (SgPC2) cells, daily treatment for 2 weeks” value in assay [3] (0.1% ethanol, 5 μM acetaldehyde, 20 μM BSO) is given as “significant increases”.

As for `[Cl][Ni][Cl]` [NiCl2], in assay [3] (48 hrs, 0.5% (v/v) ethanol, 20 μM BSO, 250 μM NiCl2 daily), the “fold increase in 8-OHG content over the control” value is listed as 55.4±3.1 fold.

As to `C=CCSSCC=C` [DADS, diallyl disulfide], the “level of 8-OHG in ethanol and BSO-treated replicon cells with inhibitor” value (shortened to “level of 8-OHG … with inhibitor”) in assay [3] is reported as “reduce; also recorded: decreased”.

On to `c1ccc(-c2ccccn2)nc1` [Dipyridyl, α,α′-Dipyridyl], for which, in assay [1], the “dn/ds ratio in the ethanol group with co-treatment” value is given as 0.46; the “amino acid substitution rate in the BSO group with co-treatment” value is “effectively abolished”; the “amino acid substitution rate in the ethanol group with co-treatment” value is given as “significantly attenuated”; the “nt. substitution rates of ethanol and BSO groups with co-treatment” value is given as “no longer any significant increase over the control”. Besides, in assay [1], the “percentage of sites undergoing positive selection with co-treatment” value is on record as “decreased”, the “dn/ds ratio of the control group with co-treatment” value was “did not affect” and the “dn/ds ratio in the BSO group with co-treatment” value is listed as 0.46. The “level of 8-OHG … with inhibitor” value in assay [3] is recorded as “significantly decreased”.

As to `OO` [H2O2, hydrogen peroxide], in assay [1], the “Nt. change per site” value is given as 5.28×10^−4 nt. change per site and the “Fold increase (Amino acid change per site)” value is on record as “about 10 fold”. The “increase in mutation frequency vs control” value in assay [2] is reported as “not statistically significant”.

Take `O=C(O)CN(CCN(CC(=O)O)CC(=O)O)CCN(CC(=O)O)CC(=O)O` [DETAPAC, 1,1,4,7,7-diethylenetriaminepentaacetic acid]: the “level of 8-OHG … with inhibitor” value in assay [3] is recorded as “decreased”. Besides, in assay [3] (DETAPAC 0.1 mM), the “decrease of 8-OHG levels in BSO-treated SgPC2 cells” value is on record as 19.7±0.2%, the “decrease of 8-OHG levels in control SgPC2 cells” value was found to be 28.0±0.3% and the “decrease of 8-OHG levels in ethanol-treated SgPC2 cells” value is 13.8±0.3%.

Take `Cc1ncc(CO)c(C=NNC(=O)c2ccncc2)c1O` [PIH, pyridoxal isonicotinoyl hydrazone]: the “level of 8-OHG … with inhibitor” value in assay [3] is listed as “decreased”; in assay [3] (listed as pyridoxal isonicotinoyl hydrazone), “significantly decreased”.

Regarding `c1ccc2c(c1)[I+]c1ccccc1-2` [DPI, diphenylene iodonium], in assay [3], the “level of 8-OHG … with inhibitor” value is on record as “reduce; also recorded: decreased”.

Take `CC(=O)O.CNC(=N)NCCC[C@H](N)C(=O)O` [L-NMA, N^G-methyl-L-arginine acetate]: in assay [3], the “level of 8-OHG … with inhibitor” value is “reduce; also recorded: decreased”.

In the case of `CCOC(=O)CNC(=O)[C@H](CS)NC(=O)CC[C@H](N)C(=O)O` [GSH ester, glutathione ethyl ester], in assay [1], the “dn/ds ratio in the ethanol group with co-treatment” value is on record as 0.43; the “amino acid substitution rate in the BSO group with co-treatment” value is reported as “not significantly above the control”; the “amino acid substitution rate in the ethanol group with co-treatment” value is “not significantly above the control”; the “nt. substitution rates of ethanol and BSO groups with co-treatment” value is reported as “not significantly above the control”. In addition, in assay [1], the “percentage of sites undergoing positive selection with co-treatment” value is “decreased”, the “dn/ds ratio of the control group with co-treatment” value came to 0.24 and the “dn/ds ratio in the BSO group with co-treatment” value was 0.21. In addition, the “level of 8-OHG … with inhibitor” value in assay [3] is on record as “reduce; also recorded: effectively decreased”.
